The record followed here is patent publication US20110251220A1, “Pharmaceutical compositions comprising gamma secretase modulators” (priority 2008, published 2011).

Each structure is given as a SMILES string.

In assay [1] the test system is U266 cells. Nature of the assay: Apoptosis by AnnexinV-FITC/PI staining, U266. The assay is classed as cell-based, human. Here is the method: The compound according to example 1, hereinafter referred to as GSI15, (compound RH02015SC, Maybridge, Acros Organics, Geel, Belgium) was freshly dissolved as 26 mM stock solution in Dimethylsulfoxide (DMSO). Multiple myeloma therapeutics used were melphalan (marketed as Alkeran®, GlaxoSmithKline, Munich, Germany) and bortezomib (marketed as Velcade®, Janssen-Cilag, Neuss, Germany). Melphalan was freshly dissolved at 10 mg/ml in 0.9% NaCl-solution. Bortezomib was freshly dissolved at 100 ng/ml in 0.9% NaCl solution. Gamma Secretase Inhibitor (GSI) treatment for apoptosis assessment by AnnexinV/PI staining, cell cycle analysis and coculture experiments was performed in 6-well plates. GSI15 stock solution was added directly to the cell suspension. GSI treatment for assaying proliferation was performed in 96-well plates. […]
For cell cycle analysis 2×10^5 cells were spun down, medium was aspirated and cells washed with PBS. […] After 10 minutes incubation in the dark at room temperature, cells were analyzed by flow cytometry. The amount of apoptotic cells was determined by AnnexinV/propidium iodide staining using Human AnnexinV-FITC Kit (Bender Medsystems, Vienna, Austria), according to manufacturer's protocol. […] Cells were then spun down again, resuspended in binding buffer containing PI and analyzed by flow cytometry.

Assay [2] has as its system U266 cells. Nature of the assay: PARP cleavage by Western blotting, U266. In kind it is cell-based, human. Here is the method:
Whole cell extracts were prepared and quantified as described in Jundt F, Anagnostopoulos I, Forster R, Mathas S, Stein H, Dorken B. Activated Notch1 signaling promotes tumor cell proliferation and survival in Hodgkin and anaplastic large cell lymphoma. Blood. 2002; 99:3398-3403. Proteins (30 μg) were resolved by sodium dodecyl sulfate-polyacrylamide gel electrophoresis (SDS-PAGE) and transferred to nitrocellulose membranes. Protein loading was normalized by Ponceau red staining. Membranes were incubated with monoclonal mouse anti-Notch1 antibody (no. 552466; BD Biosciences, Heidelberg, Germany), anti-Jagged1 antibody (sc-8303; Santa Cruz Biotechnology), polyclonal rabbit anti-Delta antiboday (Santa Cruz Biotechnology), polyclonal rabbit anti-cleaved PARP (Asp214) antibody (Cell Signaling Technologies, Frankfurt a.M., Germany) or mouse monoclonal anti-tubulin antibody (Sigma, Deisenhofen, Germany).
Secondary antibodies were goat anti-mouse (Promega, Mannheim, Germany), goat anti-rat (Dianova, Hamburg, Germany), and goat anti-rabbit (Santa Cruz Biotechnology) horseradish peroxidase (HRP)-conjugated antibodies. Detection was done using Pico chemi-luminescence reagent (Perbio Science, Bonn, Germany).
A general note: Immunoblotting shows a protein as a band on a membrane.

A further assay concerns OBL. As to the kind of experiment: PARP cleavage in osteoblasts (OBL), mono- and coculture. The assay is classed as cell-based, human. Particulars: mono- and cocultures, high doses of GSI15. Here is the method: Human MM cell lines used were as follows: NCI-H929, OPM-2, LP-1, RPMI-8226, U266 (DSMZ, Braunschweig, Germany). Cell lines were cultured in RPMI 1640 medium (Biochrom, Berlin, Germany) supplemented with 10% heat-inactivated fetal calf serum (FCS, Gibco, Karlsruhe, Germany), 1 mM sodium pyruvate and 100 units/ml penicillin and 100 μg/ml streptomycin (Gibco). Human osteoclasts were obtained as described in the reference of Zavrski I, Krebbel H, Wildemann B, et al. Proteasome inhibitors abrogate osteoclast differentiation and osteoclast function. Biochem Biophys Res Commun. 2005; 333:200-205. Briefly, peripheral blood mononuclear cells (PBMC) were isolated from whole blood of healthy volunteers, using a Ficoll-Hypaque density gradient. The adherent fraction of the isolated mononuclear cells was cultured for 21 days in MEM medium (Sigma-Aldrich Chemie, Taufkirchen, Germany) supplemented with 10% FCS, 100 U/ml penicillin, 100 μg/ml streptomycin, 50 ng/ml M-CSF, and 25 ng/ml RANKL (osteoclastogenic medium), before coculture experiments and treatment with the inventive compounds started. […]
Whole cell extracts were prepared and quantified as described in Jundt F, Anagnostopoulos I, Forster R, Mathas S, Stein H, Dorken B. Activated Notch1 signaling promotes tumor cell proliferation and survival in Hodgkin and anaplastic large cell lymphoma. […]

For another assay, the system named is human podocyte cell line. As to the kind of experiment: TGFβ-induced apoptosis in human podocyte cell line (Cell Death Detection ELISA). The assay is classed as cell-based. How it is done:
The percentage of the apoptotic cells was determined after 24 hours using the Cell Death Detection ELISA (Roche Diagnostics, Mannheim, Germany) according to the manufaturer's protocol.

Regarding `CC(C)c1ccc(S(=O)(=O)Nc2cccnc2Oc2ccc(Cl)cc2)cc1` [Example 1, N-(2-(4-chlorophenoxy)pyridin-3-yl)-4-isopropylbenzenesulfonamide], the AnnexinV-FITC/PI staining result in the assay with U266 cells [1] is on record as “remained unaffected”. Also, the “PARP cleavage product (apoptosis marker)” value with U266 cells [2] is reported as “not in the U266 cell line”. For the same compound, the “PARP cleavage (apoptosis)” value with OBL is “Neither in OBL nor in MSC apoptosis was induced”. The “effect in podocyte cell culture experiments” value with human podocyte cell line is on record as “positive effect”. Also, in the assay with human podocyte cell line (Homo sapiens, 500 nM, compared to TGFβ alone, 24 hours), 0.5 µM produced 41% inhibition.

One may read the inhibition as the change of the read-out against control, counted positive when it falls.
